Laboratory results: ChEMBL document CHEMBL5331124, “Degradation of Hexokinase 2 Blocks Glycolysis and Induces GSDME-Dependent Pyroptosis to Amplify Immunogenic Cell Death for Breast Cancer Therapy” (J Med Chem, 2023)
Calls of active or inactive are those of the source. The calls are words filed in the database; no cut-off is given here.

What was measured:
[1] = biological target: T1, Hexokinase-2 (Homo sapiens) (UniProt P52789); experiment: Induction of HK2 degradation in human MDA-MB-231 cells measured for 36 hrs by confocal microscopic analysis; format: cell-based; conditions: dose 2.0 µM
T1 sequence (whole entry): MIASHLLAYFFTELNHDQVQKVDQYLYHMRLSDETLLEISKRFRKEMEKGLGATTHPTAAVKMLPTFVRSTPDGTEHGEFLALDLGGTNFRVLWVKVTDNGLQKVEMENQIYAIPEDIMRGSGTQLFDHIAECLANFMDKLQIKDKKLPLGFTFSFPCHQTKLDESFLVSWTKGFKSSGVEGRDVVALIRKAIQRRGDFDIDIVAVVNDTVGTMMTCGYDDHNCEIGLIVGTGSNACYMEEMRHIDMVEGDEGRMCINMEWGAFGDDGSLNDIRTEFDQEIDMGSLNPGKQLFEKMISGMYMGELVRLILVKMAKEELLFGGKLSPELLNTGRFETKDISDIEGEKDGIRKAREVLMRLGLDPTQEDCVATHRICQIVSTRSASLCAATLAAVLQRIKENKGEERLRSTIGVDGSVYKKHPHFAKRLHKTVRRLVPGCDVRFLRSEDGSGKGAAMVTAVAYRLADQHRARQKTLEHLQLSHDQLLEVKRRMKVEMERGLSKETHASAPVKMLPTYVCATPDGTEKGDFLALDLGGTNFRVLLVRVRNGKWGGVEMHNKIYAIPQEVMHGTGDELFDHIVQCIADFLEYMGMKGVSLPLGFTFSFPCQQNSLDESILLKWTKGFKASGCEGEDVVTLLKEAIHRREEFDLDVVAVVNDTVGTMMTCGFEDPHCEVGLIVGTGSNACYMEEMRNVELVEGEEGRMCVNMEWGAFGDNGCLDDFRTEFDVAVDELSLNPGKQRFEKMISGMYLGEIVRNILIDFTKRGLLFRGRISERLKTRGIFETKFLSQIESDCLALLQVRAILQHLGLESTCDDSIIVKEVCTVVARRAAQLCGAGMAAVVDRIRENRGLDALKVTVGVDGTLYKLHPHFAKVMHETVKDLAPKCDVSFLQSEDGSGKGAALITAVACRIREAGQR

[2] = biological target: T2, Hexokinase-2 (Mus musculus) (UniProt O08528); experiment: Induction of HK2 degradation in mouse 4T1 cells at 20 uM measured upto 18 hrs by Western blot analysis; format: cell-based
T2 sequence (whole entry): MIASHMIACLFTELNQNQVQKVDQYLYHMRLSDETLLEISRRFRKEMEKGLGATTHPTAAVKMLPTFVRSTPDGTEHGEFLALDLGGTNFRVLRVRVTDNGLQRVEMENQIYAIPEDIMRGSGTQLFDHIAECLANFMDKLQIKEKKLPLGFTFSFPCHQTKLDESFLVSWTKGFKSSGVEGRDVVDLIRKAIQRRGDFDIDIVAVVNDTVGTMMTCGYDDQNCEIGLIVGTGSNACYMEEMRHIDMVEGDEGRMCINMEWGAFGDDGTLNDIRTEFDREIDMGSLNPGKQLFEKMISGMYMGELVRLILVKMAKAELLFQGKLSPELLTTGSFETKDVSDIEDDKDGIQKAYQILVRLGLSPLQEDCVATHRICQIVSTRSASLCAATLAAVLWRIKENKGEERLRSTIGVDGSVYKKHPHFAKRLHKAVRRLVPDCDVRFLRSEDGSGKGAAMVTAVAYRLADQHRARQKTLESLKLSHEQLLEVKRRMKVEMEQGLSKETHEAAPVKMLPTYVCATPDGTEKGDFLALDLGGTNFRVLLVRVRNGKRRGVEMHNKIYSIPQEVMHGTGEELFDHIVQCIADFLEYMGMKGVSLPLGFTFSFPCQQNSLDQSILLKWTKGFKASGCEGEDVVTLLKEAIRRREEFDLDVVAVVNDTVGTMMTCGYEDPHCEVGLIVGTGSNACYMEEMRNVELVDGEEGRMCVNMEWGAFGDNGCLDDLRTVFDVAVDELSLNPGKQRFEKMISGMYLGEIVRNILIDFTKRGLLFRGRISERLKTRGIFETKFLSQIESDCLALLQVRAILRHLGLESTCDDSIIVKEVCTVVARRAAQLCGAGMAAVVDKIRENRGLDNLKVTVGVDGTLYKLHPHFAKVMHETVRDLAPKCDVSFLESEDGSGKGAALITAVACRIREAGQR

[3] = biological target: T1, Hexokinase-2 (Homo sapiens); experiment: Induction of HK2 degradation in human MDA-MB-231 cells upto 200 uM measured at 12 to 36 hrs; format: cell-based; conditions: time 12-36 hrs
[4] = Toxicity in BALB/c mouse implanted with mouse 4T1 cells assessed as effect on mean corpuscular volume at 50 mg/kg, ip measured after 25 days in presence of cisplatin by routine blood test; format: organism-based; conditions: in vivo, 600 h, time 25 day
[5] = biological target: Protein cereblon/Hexokinase-2 (Homo sapiens) (UniProt P52789+Q96SW2); experiment: PROTAC activity at CRBN/HK2 in human MDA-MB-231 cells assessed as HK2 degradation at 20 uM incubated for 36 hrs; format: cell-based
[6] = Toxicity in BALB/c mouse implanted with mouse 4T1 cells assessed as effect on mean corpuscular hemoglobin at 50 mg/kg, ip measured after 25 days in presence of cisplatin by routine blood test; format: organism-based; conditions: in vivo, 600 h, time 25 day
4T1 [7] = experiment: Antitumor activity against mouse 4T1 cells implanted in BALB/c mouse assessed as reduction in tumor volume at 50 mg/kg, ip measured after 23 days in presence of cisplatin; format: functional, organism-based; conditions: time 23.0 day
[8] = Toxicity in BALB/c mouse implanted with mouse 4T1 cells assessed as effect on platelet count at 50 mg/kg, ip measured after 25 days by routine blood test; format: organism-based; conditions: in vivo, 600 h, time 25 day
4T1 [9] = experiment: Inhibition of colony formation in mouse 4T1 cells at 5 to 20 uM incubated for 48 hrs by giemsa staining based analysis; format: functional, cell-based; conditions: dose 5-20 µM
4T1 [10] = experiment: Inhibition of glycolysis in mouse 4T1 cells assessed as reduction in extracellular acidification rate at 20 uM incubated for 1 to 4 hrs by seahorse analyzer method; format: functional, cell-based; conditions: time 1-4 hrs
[11] = biological target: Protein cereblon/Hexokinase-2 (Mus musculus) (UniProt O08528+Q8C7D2); experiment: PROTAC activity at CRBN/HK2 in mouse 4T1 cells assessed as HK2 degradation at 20 uM incubated for 36 hrs; format: cell-based
[12] = biological target: T1, Hexokinase-2 (Homo sapiens); experiment: Induction of HK2 degradation in human MDA-MB-231 cells assessed as increase in Bax expression at 20 uM measured for 36 hrs by Western blot analysis; format: cell-based
4T1 [13] = experiment: Antitumor immunity against mouse 4T1 cells implanted in BALB/c mouse model assessed as upregulation of IFN-gamma expression in mouse tumor by ELISA analysis; format: functional, cell-based
4T1 [14] = experiment: Induction of pyroptosis in mouse 4T1 cells assessed as reduction in full length caspase-3 level at 20 uM incubated for 36 hrs; format: functional, cell-based
[15] = Toxicity in BALB/c mouse implanted with mouse 4T1 cells assessed as pathological changes in spleen at 50 mg/kg, ip measured after 25 days in presence of cisplatin by Hematoxylin -eosin staining based analysis; format: organism-based; conditions: in vivo, 600 h, time 25 day
4T1 [16] = experiment: Antitumor activity against mouse 4T1 cells implanted in BALB/c mouse model assessed as reduction in HK2 expression level at 50 mg/kg, ip measured after 25 days by Western blot analysis; format: functional, organism-based; conditions: time 25.0 day

Chain of Protein cereblon/Hexokinase-2 (Homo sapiens) (Q96SW2 whole entry, looked up, one chain of several): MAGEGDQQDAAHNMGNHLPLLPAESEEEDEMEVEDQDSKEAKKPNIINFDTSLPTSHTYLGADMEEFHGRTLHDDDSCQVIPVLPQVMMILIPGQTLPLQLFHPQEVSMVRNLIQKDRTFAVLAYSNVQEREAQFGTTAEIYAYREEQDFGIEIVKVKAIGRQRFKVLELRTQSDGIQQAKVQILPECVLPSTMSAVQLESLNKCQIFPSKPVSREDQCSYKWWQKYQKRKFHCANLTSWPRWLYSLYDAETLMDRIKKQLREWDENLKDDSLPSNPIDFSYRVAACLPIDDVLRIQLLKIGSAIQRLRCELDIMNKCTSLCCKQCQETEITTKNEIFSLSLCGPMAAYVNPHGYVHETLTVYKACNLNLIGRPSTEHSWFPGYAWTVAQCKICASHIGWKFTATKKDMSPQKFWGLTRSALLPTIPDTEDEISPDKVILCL
Chain of Protein cereblon/Hexokinase-2 (Mus musculus) (Q8C7D2 whole entry, looked up, one chain of several): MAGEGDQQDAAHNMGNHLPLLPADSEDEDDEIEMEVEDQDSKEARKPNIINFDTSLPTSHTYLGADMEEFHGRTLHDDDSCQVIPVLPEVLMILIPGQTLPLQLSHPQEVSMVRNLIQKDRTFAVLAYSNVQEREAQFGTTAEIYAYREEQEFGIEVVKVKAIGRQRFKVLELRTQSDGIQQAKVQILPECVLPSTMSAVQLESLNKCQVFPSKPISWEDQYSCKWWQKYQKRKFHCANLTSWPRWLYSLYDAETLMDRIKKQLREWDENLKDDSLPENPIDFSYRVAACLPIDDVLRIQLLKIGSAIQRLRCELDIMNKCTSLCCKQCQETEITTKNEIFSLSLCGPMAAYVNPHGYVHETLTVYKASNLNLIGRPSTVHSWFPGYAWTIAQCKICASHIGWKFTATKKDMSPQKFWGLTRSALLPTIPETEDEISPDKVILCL

Question: For O=C1CCC(N2C(=O)c3cccc(NCCCCNC(=O)c4nn(Cc5ccc(Cl)cc5Cl)c5ccccc45)c3C2=O)C(=O)N1 (stereo unspecified), which Activity [1] is on record?
Answer: The Activity was “Dose-Dependent Effect”.

Question: What about the Activity [2] of the same compound?
Answer: Its Activity is “Active”.

Question: What about the Activity [3] of the same compound?
Answer: The Activity was “Active”.

Question: What about the Activity [4] of the same compound?
Answer: The Activity was “Non-Toxic”.

Question: What about the Activity [5] of the same compound?
Answer: The Activity was “Active”.

Question: What about the Activity [6] of the same compound?
Answer: Its Activity is “Non-Toxic”.

Question: And the Activity (4T1 [7])?
Answer: Its Activity is “Active”.

Question: What about the Activity [8] of the same compound?
Answer: Its Activity is “Non-Toxic”.

Question: What about the inhibition (4T1 [9]) of the same compound?
Answer: Its inhibition is “Active”.

Question: And the inhibition (4T1 [10])?
Answer: The inhibition was “Active”.

Question: What about the Activity [11] of the same compound?
Answer: The Activity was “Active”.

Question: And the Activity [12]?
Answer: Its Activity is “Active”.

Question: And the Activity (4T1 [13])?
Answer: The Activity was “Active”.

Question: And the Activity (4T1 [14])?
Answer: The Activity was “Active”.

Question: And the Activity [15]?
Answer: The Activity was “Non-Toxic”.

Question: And the Activity (4T1 [16])?
Answer: The Activity was “Active”.
